Earlier results, collected in US20220204479A1, “PYRIMIDINE COMPOUND AND PREPARATION METHOD THEREFOR” (Wuhan Humanwell Innovative Drug Research And Development …, priority 2019, published 2022).

Details: cited from earlier work; for probability of discontinuation due to serious adverse events: patients taking the drug

Structure (SMILES)	probability of discontinuation due to serious adverse events [%]	incidence of gastrointestinal reactions (patients) [%]
COC(=O)c1ccc2c(c1)NC(=O)/C2=C(\Nc1ccc(N(C)C(=O)CN2CCN(C)CC2)cc1)c1ccccc1 [Nintedanib]	26.3	≤ 50
Cc1ccc(=O)n(-c2ccccc2)c1 [Pirfenidone]	20.9	–
